Laboratory results reported in article PMC9207808 (ACS Chemical Biology, 2022).
Residues, ends and D or L forms follow the SMILES beside them.

Legend:
[1] = system: S. Typhimurium (14028) Δphd-doc::Km strains coexpressing DocSTm; assay: Growth rescue experiment in S. Typhimurium; format: cell-based; settings: coexpression of DocSTm (pBAD33, arabinose) and Phd construct (pCA24N, basal expression); OD600 over time, M9 minimal medium; average of three independent experiments
Protocol: The cotransformations above were also performed with an empty pBAD33 plasmid, as a control for the absence of DocSTm expression.
For the growth rescue experiment, overnight (1% tryptone, 0.5% yeast extract, 0.5% NaCl, 1% glucose, 100 μg/mL of carbenicillin, and 34 μg/mL of chloramphenicol) cultures of the generated S. Typhimurium strains were diluted to an OD600 of approximately 0.006 into fresh M9 minimal medium supplemented with 0.5% or 1% arabinose, 0.4% glycerol, 0.4% casamino acids, 100 μg/mL of carbenicillin, and 34 μg/mL of chloramphenicol. Cell growth at a given time was monitored at OD600 with a Genesys 140 Visible Spectrophotometer (Thermo Scientific).

[2] = system: DocSTm; assay: Surface plasmon resonance binding to immobilised Doc; parameters: species or system S. Typhimurium; settings: for fold decrease in affinity (given as decrease/loss in Kd) compared with peptide 1: SPR Kd relative to wild-type peptide 1; for koff × 10^-6 / kon × 10^6: 1:1 kinetic fit, mean ± SD of at least 3 replicates; for kon × 10^6: single-cycle kinetics (multicycle for PhdSTm1-73); for Half-life of the complex: t1/2 = ln2 / koff
Protocol: Experiments were performed in a Biacore S200 (Cytiva) with a Series S sensor chip NTA (Cytiva). The data was analyzed using the Biacore Evaluation Software (Cytiva) and curves were plotted using GraphPad Prism 5 (GraphPad Software, U.S.A.). All experiments were performed at 22 °C with a running buffer containing 10 mM HEPES, 500 mM NaCl, 50 μM EDTA, and 0.005% (v/v) TWEEN 20 at pH 8.0. The surface was conditioned following the standard manufacturer’s guidelines and protein immobilization was performed with a 30–60 s pulse (flow rate of 5 μL/min) of Doc (150 nM) in running buffer. […] Surface regeneration was performed with a 1 min pulse of 0.5 M imidazole followed by a 1 min pulse of 0.35 M of EDTA at pH 8.0.
Binding to Doc was performed using a multicycle kinetics (MCK) setup for peptides 7, 10, and 14, while the remaining samples were tested using a single-cycle kinetics (SCK) setup. The surface was fully regenerated in between each analyte in both cases. In the MCK experiments, increasing concentrations of each analyte were injected with an 80 s pulse (30 μL/min) and dissociation times varied depending on the time required to fully dissociate the complex. The double-referenced sensorgrams (raw data subtracted from a blank injection and reference surface responses) were analyzed using a kinetic and/or a steady-state 1:1 binding model. In the SCK experiments, typically six concentrations of each analyte were sequentially injected with 80 s pulses (30 μL/min), and dissociation times varied depending on the time required to dissociate at least 5% of the complex. The double-referenced sensorgrams were fitted using a kinetic 1:1 binding model.
At least three independent replicates were measured for each analyte (ESI section 5). When a steady-state fit was applied, the reported Kd and its uncertainty correspond, respectively, to the average and standard deviations of the Kd obtained in each measurement. When a kinetic fit was applied, the reported rate constants (kon and koff) and their uncertainties correspond, respectively, to the average and standard deviations of the rate constants obtained in each measurement. In this case, reported Kd were calculated using the equation below, and the standard deviation of the rate constants was propagated. [drawing 1]

[3] = system: DocSTm; assay: Differential scanning fluorimetry (thermal stabilisation of Doc); format: binding, S. Typhimurium; settings: for melting temperature shift ΔTm: DSF, DocSTm 5 μM, analyte 50 μM, Tm with analyte minus Tm of free DocSTm (42.9 ± 0.9 °C), SYPRO Orange, 20 mM K2HPO4, 50 mM (NH4)2SO4, pH 8.0, triplicate; for Average Tm / Tm: DocSTm 5 µM + 50 µM binder; for Average Tm: average of 3 replicates
Protocol: Experiments were performed in a Mx3005P qPCR System (Agilent) collecting fluorescence data with a temperature ramp of 25 to 95 °C. Samples were prepared in a buffer containing 20 mM K2HPO4 and 50 mM (NH4)2SO4 at pH 8.0. The SYPRO Orange dye (Sigma-Aldrich, 5000× stock in DMSO) was used to monitor protein denaturation and was diluted to a final concentration of 3×. For binding experiments, the final concentration of Doc was 5 μM. Each condition was performed in triplicate (ESI section 4) and the melting curves were plotted using GraphPad Prism 5 (GraphPad Software, U.S.A.). The melting temperatures were obtained by fitting the sigmoidal section of the curves to a Boltzmann sigmoid function.

[4] = system: DocSTm; assay: Dot blot phosphorylation assay (EF-Tu phosphorylation by Doc); format: biochemical, S. Typhimurium; settings: α-pThr, DocSTm 1 μM, EF-TuSTm 3 μM, ATP 1 mM, inhibitor 10 μM to 5 nM (3-fold dilutions), 16 h at RT
Protocol: Samples were prepared to a final volume of 10 μL. […] Samples were incubated for 16 h at RT and subsequently spotted on a nitrocellulose membrane. Phosphorylated EF-Tu was detected by immunodecoration using a rabbit monoclonal antiphosphothreonine antibody (Abcam, ab218195) at 1:2000 dilution (1 h at 4 °C), followed by incubation with a goat antirabbit IgG (H+L) HRP conjugate antibody (Advansta) at 1:10 000 dilution (1 h at RT). Chemiluminescence was developed using the HRP Luminata kit (Merck, WBLUR0100) and captured by an ImageQuant LAS4000 Western blot imaging system (Cytiva).

[5] = SPR multicycle, steady-state fit, replicate 1
[6] = SPR multicycle, steady-state fit, replicate 2
[7] = SPR multicycle, steady-state fit, replicate 3
[8] = SPR, multicycle kinetics, steady-state 1:1 fit, mean ± SD of 3 replicates
[9] = SPR, kinetic fit, KD calculated from mean koff and kon, SD propagated, 22 °C, pH 8.0

| SMILES | rescue of Salmonella growth from DocSTm-induced growth inhibition (in words) [1] | fold decrease in affinity (given as decrease/loss in Kd) compared with peptide 1 [2] [fold] | Kd [2, 5] [nM] | Kd [2, 6] [nM] | Kd [2, 7] [nM] | Kd [2, 8] [nM] | melting temperature shift ΔTm [3] [°C] | Average Tm [3] [°C] | Tm ([3]; replicate 1) [°C] | Tm ([3]; replicate 2) [°C] | Tm ([3]; replicate 3) [°C] | Kd ([2]; SPR kinetic fit, replicate 1) [nM] | Kd ([2]; SPR kinetic fit, replicate 2) [nM] | Kd ([2]; SPR kinetic fit, replicate 3) [nM] | koff × 10^-6 ([2]; SPR, 22 °C, pH 8.0) | kon × 10^6 ([2]; SPR, 22 °C, pH 8.0) | Kd [2, 9] [nM] | Half-life of the complex [2] [min] | inhibition of EF-TuSTm phosphorylation by DocSTm (in words) [4] |
| --- | --- | --- | --- | --- | --- | --- | --- | --- | --- | --- | --- | --- | --- | --- | --- | --- | --- | --- | --- |
| CC[C@H](C)[C@H](NC(=O)[C@H](C)NC(=O)[C@H](C)NC(=O)[C@H](Cc1ccccc1)NC(=O)[C@H](CCC(=O)O)NC(=O)[C@H](CC(=O)O)NC(=O)[C@H](CC(=O)O)NC(=O)[C@H](CCSC)NC(=O)[C@H](Cc1c[nH]c2ccccc12)NC(C)=O)C(=O)N[C@@H](CCSC)C(=O)N[C@@H](C)C(=O)N[C@H](C(=O)N[C@@H](C)C(=O)NCC(=O)N[C@@H](CC(N)=O)C(=O)N[C@@H](CCC(=O)O)C(=O)N[C@@H](CC(C)C)C(=O)N[C@@H](CCCNC(=N)N)C(=O)N[C@@H](CCC(=O)O)C(=O)N[C@@H](CC(C)C)C(=O)N[C@@H](C)C(=O)N[C@@H](CC(=O)O)C(=O)N[C@@H](CCCCN)C(=O)O)C(C)C [peptide 10] (Ac-WMDDEFAAIMAVAGNELRELADK-OH; C-terminus assumed) | provided only a partial rescue | ~300 | 12.2 ± 1.8 | 13.1 ± 1.4 | 40 ± 2.87 | 21.8 ± 15.8 | 20.9 ± 1.0 | 63.7 ± 0.4 | 63.3 | 63.7 | 64.2 | – | – | – | – | – | – | – | – |
| CSCC[C@H](NC(=O)[C@H](C)NC(=O)[C@H](C)NC(=O)[C@H](C)NC(=O)[C@H](Cc1ccccc1)NC(=O)[C@H](CCC(=O)O)NC(=O)[C@H](CC(=O)O)NC(=O)[C@H](CC(=O)O)NC(=O)[C@H](CCSC)NC(=O)[C@H](Cc1c[nH]c2ccccc12)NC(C)=O)C(=O)N[C@@H](C)C(=O)N[C@H](C(=O)N[C@@H](Cc1c[nH]cn1)C(=O)NCC(=O)N[C@@H](CC(N)=O)C(=O)N[C@@H](CCC(=O)O)C(=O)N[C@@H](CC(C)C)C(=O)N[C@@H](CCCNC(=N)N)C(=O)N[C@@H](CCC(=O)O)C(=O)N[C@@H](CC(C)C)C(=O)N[C@@H](C)C(=O)N[C@@H](CC(=O)O)C(=O)N[C@@H](CCCCN)C(=O)O)C(C)C [peptide 7] (Ac-WMDDEFAAAMAVHGNELRELADK-OH; C-terminus assumed) | unable to rescue growth | ~300 | 25.4 ± 3 | 19.4 ± 2.2 | 15.1 ± 0.09 | 19.9 ± 5.18 | 15.5 ± 1.5 | 58.4 ± 1.2 | 59.7 | 57.7 | 57.6 | – | – | – | – | – | – | – | – |
| CC[C@H](C)[C@H](NC(=O)[C@H](C)NC(=O)[C@H](C)NC(=O)[C@H](Cc1ccccc1)NC(=O)[C@H](CCC(=O)O)NC(=O)[C@H](CC(=O)O)NC(=O)[C@H](CC(=O)O)NC(=O)[C@H](CCSC)NC(=O)[C@H](Cc1c[nH]c2ccccc12)NC(C)=O)C(=O)N[C@@H](CCSC)C(=O)N[C@@H](C)C(=O)N[C@H](C(=O)N[C@@H](Cc1c[nH]cn1)C(=O)NCC(=O)N[C@@H](CC(N)=O)C(=O)N[C@@H](CCC(=O)O)C(=O)N[C@@H](CC(C)C)C(=O)N[C@@H](CCCNC(=N)N)C(=O)N[C@@H](CCC(=O)O)C(=O)N[C@@H](CC(C)C)C(=O)N[C@@H](C)C(=O)O)C(C)C [peptide 20] (Ac-WMDDEFAAIMAVHGNELRELA-OH; N-terminus and C-terminus assumed) | – | – | – | – | – | – | 25.6 ± 0.9 | 68.5 ± 0.1 | 68.5 | 68.4 | 68.5 | 0.447 | 0.414 | 0.424 | 393 ± 18 ×10^-6 s-1 | 0.917 ± 0.023 ×10^6 M-1 s-1 | 0.428 ± 0.023 | 29.4 ± 1.2 | inhibition of DocSTm comparable to 1 |
| CC[C@H](C)[C@H](NC(=O)[C@H](C)NC(=O)[C@H](C)NC(=O)[C@H](Cc1ccccc1)NC(=O)[C@H](CCC(=O)O)NC(=O)[C@H](Cc1c[nH]c2ccccc12)NC(C)=O)C(=O)N[C@@H](CCSC)C(=O)N[C@@H](C)C(=O)N[C@H](C(=O)N[C@@H](Cc1c[nH]cn1)C(=O)NCC(=O)N[C@@H](CC(N)=O)C(=O)N[C@@H](CCC(=O)O)C(=O)N[C@@H](CC(C)C)C(=O)N[C@@H](CCCNC(=N)N)C(=O)N[C@@H](CCC(=O)O)C(=O)N[C@@H](CC(C)C)C(=O)N[C@@H](C)C(=O)N[C@@H](CC(=O)O)C(=O)N[C@@H](CCCCN)C(=O)O)C(C)C [peptide 21] (Ac-WEFAAIMAVHGNELRELADK-OH; N-terminus and C-terminus assumed) | – | – | – | – | – | – | 19.3 ± 0.9 | 62.2 ± 0.2 | 62.3 | 62.0 | 62.4 | 0.41 | 0.412 | 0.365 | 496 ± 58 ×10^-6 s-1 | 1.252 ± 0.080 ×10^6 M-1 s-1 | 0.396 ± 0.052 | 23.4 ± 3 | inhibition of DocSTm comparable to 1 |
| CC[C@H](C)[C@H](NC(=O)[C@H](C)NC(=O)[C@H](C)NC(=O)[C@H](Cc1ccccc1)NC(=O)[C@H](CCC(=O)O)NC(=O)[C@H](CC(=O)O)NC(=O)[C@H](CC(=O)O)NC(=O)[C@H](CCSC)NC(=O)[C@H](Cc1c[nH]c2ccccc12)NC(C)=O)C(=O)N[C@@H](CCSC)C(=O)N[C@@H](C)C(=O)N[C@H](C(=O)N[C@@H](Cc1c[nH]cn1)C(=O)NCC(=O)N[C@@H](CC(N)=O)C(=O)N[C@@H](C)C(=O)N[C@@H](CC(C)C)C(=O)N[C@@H](CCCNC(=N)N)C(=O)N[C@@H](CCC(=O)O)C(=O)N[C@@H](CC(C)C)C(=O)N[C@@H](C)C(=O)N[C@@H](CC(=O)O)C(=O)N[C@@H](CCCCN)C(=O)O)C(C)C [peptide 13] (Ac-WMDDEFAAIMAVHGNALRELADK-OH; C-terminus assumed) | – | – | – | – | – | – | 27.7 ± 0.9 | 70.6 ± 0.2 | 70.8 | 70.4 | 70.6 | 0.0475 | 0.0451 | 0.0352 | 112 ± 38 ×10^-6 s-1 | 2.705 ± 1.041 ×10^6 M-1 s-1 | 0.042 ± 0.021 | 102 ± 36 | inhibited DocSTm at similar concentrations to peptide 1 |
